Measured values published in ChEMBL document CHEMBL5724803, “Viability screening in matched tumor and normal assay results for EUbOPEN Chemogenomics Library” (2024).
Square brackets hold non-standard residues; d marks the D form. Peptide text beside a SMILES is read from it. Arg(Me) = CNC(=N)NCCC[C@H](N)C(=O)O; d4Pal = N[C@H](Cc1ccncc1)C(=O)O; azaGly = NNC(=O)O

Test system: Colon organoid
Assay type: functional, Homo sapiens

## C[C@H](c1ccnc(Nc2nc3ccc(-c4cc(N(C)C)ncn4)cc3[nH]2)c1)N1CCN(C(=O)CC(F)(F)F)CC1 [BAY-985]
  Cell Viability Ratio: 0.822

## COc1cc(-c2cn([C@H]3CCc4ccccc4N(CC(F)(F)F)C3=O)nn2)ccc1-n1ccc(C)n1
  Cell Viability Ratio: 0.9931

## FC(F)(F)c1ccc2c(c1)nc(-c1cccnc1)n2C1CC1 [MSD-CYP11B2-Negative-control]
  Cell Viability Ratio: 1.22

## Cn1nc(C(F)(F)F)cc1-c1cnc(N2CCc3cc(S(=O)(=O)Nc4c(F)cc(Cl)cc4F)cc(N4CCCC4=O)c32)nc1 [TP-020]
  Cell Viability Ratio: 0.9629

## O=C(O)[C@H]1[C@H](Cn2nnc3ccccc3c2=O)CC[C@@H]1C(=O)c1ccc(OCCC2CCOCC2)cc1 [BAY-7598]
  Cell Viability Ratio: 1.026

## C[C@H](NC(=O)c1cnc2n1[C@](C)(Cc1ccc(C#N)cc1)C(=O)N2c1cc(Cl)c(F)c(Cl)c1)C(=O)NC1(c2ccccn2)CC1 [BI 1950]
  Cell Viability Ratio: 0.9219

## O=C(NNS(=O)(=O)c1ccccc1)c1cc(-c2ccnnc2)ccc1F [WM-2474]
  Cell Viability Ratio: 1.138

## COc1cc(Nc2nccc(-c3cnn4nc(OC)ccc34)n2)cc(C(F)(F)F)c1
  Cell Viability Ratio: 1.735

## O=C(O)[C@@H]1[C@@H](Cn2nnc3ccccc3c2=O)CC[C@H]1C(=O)c1ccc(OCCC2CCOCC2)cc1 [BAY-694]
  Cell Viability Ratio: 1.051

## NS(=O)(=O)c1cc(NC(=O)C2(c3ccccc3Cl)CC2)ccc1Oc1cccc(Cl)c1 [BAY-207]
  Cell Viability Ratio: 0.9336

## Cc1noc([C@H]2C[C@@H](c3ccc(C(F)(F)F)cc3)CN(C(=O)N3CCS(=O)(=O)C3)C2)n1 [BAY-448]
  Cell Viability Ratio: 0.9504

## O=C(NCc1ccccc1)c1ccc(S(=O)(=O)NCc2ccccc2)cc1
  Cell Viability Ratio: 1.216

## CC(=O)NCC(=O)N1[C@@H]2CC[C@H]1c1ccc(Nc3ncc(C(F)(F)F)c(NC4CCC4)n3)cc12 [PF-03814735]
  Cell Viability Ratio: 0.4683

## CN1CCN(Cc2ccc(Nc3ncc(Cl)c(Nc4ccccc4S(=O)(=O)N(C)C)n3)cc2)CC1 [DUBERMATINIB]
  Cell Viability Ratio: 0.1542

## CNC(=O)c1cc(C(=O)NC2CC2)cn(Cc2ccccc2)c1=O [GSK620]
  Cell Viability Ratio: 0.8825

## CC(C)(C)OC(=O)N1CCCC1CNC1CCC(c2cc(F)ccc2F)(S(=O)(=O)c2ccc(Cl)cc2)CC1 (stereo not given) [GSI-NC]
  Cell Viability Ratio: 0.9423

## CN(C)C(=O)N1CC[C@H](NC2=Nc3cc(F)ccc3N(CC(F)F)c3ccc(Cl)cc32)C1
  Cell Viability Ratio: 0.9552

## O=C(N[C@H]1CCCCC/C=C\C2C[C@@]2(C(=O)O)NC(=O)[C@@H]2C[C@@H](Oc3ccncc3)CN2C1=O)OC1CCCC1 (stereo not given in full) [BI 1675]
  Cell Viability Ratio: 1.111

## O=C(Nc1cccnn1)N1CCC(=Cc2cccc(Oc3ccc(C(F)(F)F)cn3)c2)CC1
  Cell Viability Ratio: 0.957

## CCCCN(Cc1ccccc1)C(=O)c1ccc(S(=O)(=O)Nc2ccccc2)cc1
  Cell Viability Ratio: 1.3021

## O=C(Nc1ccc(-n2nc(-c3cccnc3)cc2C(F)(F)F)cn1)c1ccc(-c2ccccc2)c(F)c1 [BI 2049]
  Cell Viability Ratio: 1.116

## CCCCN(CCCC)C(=O)CN1C[C@@H](c2cc(OC)c3c(c2)OCO3)[C@H](C(=O)O)[C@H]1CC(C)(C)CCC [A-545]
  Cell Viability Ratio: 1.095

## Nc1nc(NCc2ccccc2)nc(-c2cccc(CO)c2)n1 [ZINC32547799]
  Cell Viability Ratio: 1.205

## Cc1cn(-c2cc(NC(=O)c3ccc4c(c3)CN(c3cncnc3)C[C@@H]4C)cc(C(F)(F)F)c2)cn1
  Cell Viability Ratio: 1.531

## CNC(=N)NCCC[C@H](NC(=O)[C@H](CC(C)C)NC(=O)NNC(=O)[C@H](Cc1ccccc1)NC(=O)[C@H](CO)NC(=O)[C@H](CC(N)=O)NC(=O)[C@@H](Cc1ccncc1)NC(=O)[C@H](N)Cc1ccc(O)cc1)C(=O)N[C@@H](Cc1ccccc1)C(N)=O [KISS1-305] (H-[dY][d4Pal]NSF[azaGly]L[Arg(Me)]F-NH2)
  Cell Viability Ratio: 1.123

## Cc1nc(N2CC[C@H](O)C2)ncc1-c1cc(C(F)(F)F)cc2[nH]ncc12
  Cell Viability Ratio: 1.041

## O[C@]1(C(F)(F)F)CCCC[C@H]1Nc1ccc(F)cc1 [BAY-390]
  Cell Viability Ratio: 0.968

## Cl.Cl.NC1(c2ccc(-c3nc4ccn5c(=O)[nH]nc5c4cc3-c3ccccc3)cc2)CCC1
  Cell Viability Ratio: 1.463

## Cc1c(NC(=O)c2cc(C(N)=O)nc3cc(F)ccc23)c(C(F)(F)F)nn1Cc1ccc(C(C)(C)C)cc1 [BAY-588]
  Cell Viability Ratio: 1.099

## CN(C)C(=O)/C(C#N)=C/c1ccc(-c2nc3cnc4c(ccn4C)c3n2C2CCCCC2)o1
  Cell Viability Ratio: 0.859

## CO[C@@H](C)c1c(Nc2ccc([C@H](N(C)C(=O)C3CCS(=O)(=O)CC3)C(F)(F)F)cc2)cnc2cc(Cl)nn12 [NVS-MALT1]
  Cell Viability Ratio: 0.853

## COc1ccc2c(O[C@@H]3C[C@H]4C(=O)N[C@]5(C(=O)O)CC5/C=C\CCCCC[C@H](NC(=O)OC5CCCC5)C(=O)N4C3)cc(-c3csc(NC(=O)C(C)C)n3)nc2c1C (stereo not given in full) [BI 1230]
  Cell Viability Ratio: 0.9938

## CS(=O)(=O)NCC[C@H](NC(=O)c1cncc2c1cnn2-c1ccc(F)cc1)c1ccnc(S(C)(=O)=O)c1 [BI 9307]
  Cell Viability Ratio: 1.198

## CN(C)C(=O)Cn1cc(-c2nc(C3(c4ccc(-c5cnc(N)nc5)cc4)CC3)no2)cn1 [BI 0153]
  Cell Viability Ratio: 0.9292

## C[C@@H](c1cccc(CN)c1)n1cc(Cl)cc(C(N)=O)c1=N.Cl
  Cell Viability Ratio: 1.078

## CN1CCN(C(=O)C(C)(C)c2ccc(C(=O)Nc3cn4cc(-c5cc(C(C)(C)C)cc(C(C)(C)C)c5)ccc4n3)cc2)CC1 [T3-CLK-N]
  Cell Viability Ratio: 0.9471

## CN(C)c1ncnc(-c2ccc3nc(Nc4cc(CN5CCN(C(=O)CC(F)(F)F)CC5)ccn4)[nH]c3c2)c1Cl [BAY-440]
  Cell Viability Ratio: 0.922

## CN(c1ccnc(CNc2nc(Nc3ccc4c(c3)CC(=O)N4)ncc2C(F)(F)F)n1)S(C)(=O)=O [PF-00911705]
  Cell Viability Ratio: 1.1264

## CCN(CC)S(=O)(=O)Nc1cccc(-c2ccc3c(NC(=O)C4CC4)n[nH]c3c2)c1
  Cell Viability Ratio: 1.062

## Cc1nc(Cc2cccc(C(F)(F)F)c2)sc1-c1ccc(C(N)=O)nc1 [TP-024n]
  Cell Viability Ratio: 1.0424

## c1ccc2oc(-c3csc(C4CCN(Cc5nc6ncccc6[nH]5)CC4)n3)cc2c1
  Cell Viability Ratio: 0.6127

## O=C(O)c1ccc(-c2c[nH]c3ncc(-c4ccccc4)cc23)cc1C1CCCC1 [GSK-650394]
  Cell Viability Ratio: 1.062

## COc1cc(-c2cn([C@H]3CCc4c(F)cccc4N(CC(F)(F)F)C3=O)nn2)ccc1-n1cnc(C)c1
  Cell Viability Ratio: 1.087

## Clc1cccc(-c2nnnn2Cc2cccnc2)c1Cl
  Cell Viability Ratio: 0.9298

## Cn1cncc1[C@@](O)(COc1ccc(C#N)cc1-c1ccc(OC(F)(F)F)cc1)c1ccc(C#N)cc1 [A-108]
  Cell Viability Ratio: 0.984

## CCCCN(CCCC)C(=O)CN1C[C@@H](c2cc(OC)c3c(c2)OCO3)[C@H](C(=O)O)[C@H]1CC(C)(C)CCC.Cl
  Cell Viability Ratio: 0.8768

## CCCOc1ccc([C@@H]2[C@@H](C(=O)O)[C@H](c3ccc4c(c3)OCO4)CN2CC(=O)Nc2c(CC)cccc2CC)cc1 [A-1806262]
  Cell Viability Ratio: 1.041

## O=C(NCCCN1CCOC1=O)c1cnc(NCc2cc(Br)ccc2Br)nc1NC1CCCC1
  Cell Viability Ratio: 0.9691

## CN1CCN(c2cnc3c(C4CCN(C(=O)c5ccc(OC(F)(F)F)cc5N)CC4)ncnc3c2)CC1 [BAY-885]
  Cell Viability Ratio: 0.9479

## CN(C(=O)c1ccccc1)c1cc(N(C)c2ccc3c(c2)CCc2ccc(C(=O)NCCN4CCOCC4)cc2C3=O)ccc1F [FM-743]
  Cell Viability Ratio: 0.9975
